Experimental data taken from PubChem BioAssay (NCI).
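Test compounds were applied to cells in 96-well plates for 48 hours at 5 doses. TGI denotes the concentration required for complete inhibition of growth.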

What was measured:
Experiment in all cases: growth of human tumour cells (NCI), 48 h
786-0 renal = system: 786-0 renal
A498 renal = system: A498 renal
A549 NSCLC = system: A549 NSCLC
ACHN renal = system: ACHN renal
CAKI-1 renal = system: CAKI-1 renal
CCRF-CEM leukemia = system: CCRF-CEM leukemia
COLO 205 colon = system: COLO 205 colon
DLD-1 colon = system: DLD-1 colon
DMS 273 small cell lung = system: DMS 273 small cell lung
EKVX NSCLC = system: EKVX NSCLC
HCC-2998 colon = system: HCC-2998 colon
HCT-116 colon = system: HCT-116 colon
HCT-15 colon = system: HCT-15 colon
HL-60(TB) leukemia = system: HL-60(TB) leukemia
HOP-18 NSCLC = system: HOP-18 NSCLC
HOP-62 NSCLC = system: HOP-62 NSCLC
HOP-92 NSCLC = system: HOP-92 NSCLC
HT29 colon = system: HT29 colon
IGROV1 ovarian = system: IGROV1 ovarian
K-562 leukemia = system: K-562 leukemia
KM12 colon = system: KM12 colon
KM20L2 colon = system: KM20L2 colon
LOX IMVI melanoma = system: LOX IMVI melanoma
LXFL 529 NSCLC = system: LXFL 529 NSCLC
M14 melanoma = system: M14 melanoma
M19-MEL melanoma = system: M19-MEL melanoma
MALME-3M melanoma = system: MALME-3M melanoma
MOLT-4 leukemia = system: MOLT-4 leukemia
NCI-H226 lung = system: NCI-H226 lung
NCI-H23 lung = system: NCI-H23 lung
NCI-H460 lung = system: NCI-H460 lung
NCI-H522 lung = system: NCI-H522 lung
OVCAR-3 ovarian = system: OVCAR-3 ovarian
OVCAR-4 ovarian = system: OVCAR-4 ovarian
OVCAR-5 ovarian = system: OVCAR-5 ovarian
OVCAR-8 ovarian = system: OVCAR-8 ovarian
RPMI-8226 leukemia = system: RPMI-8226 leukemia
RXF 393 renal = system: RXF 393 renal
RXF-631 renal = system: RXF-631 renal
SF-268 CNS = system: SF-268 CNS
SF-295 CNS = system: SF-295 CNS
SF-539 CNS = system: SF-539 CNS
SK-MEL-2 melanoma = system: SK-MEL-2 melanoma
SK-MEL-28 melanoma = system: SK-MEL-28 melanoma
SK-MEL-5 melanoma = system: SK-MEL-5 melanoma
SK-OV-3 ovarian = system: SK-OV-3 ovarian
SN12C renal = system: SN12C renal
SNB-19 CNS = system: SNB-19 CNS
SNB-75 CNS = system: SNB-75 CNS
SNB-78 CNS = system: SNB-78 CNS
SR leukemia = system: SR leukemia
SW-620 colon = system: SW-620 colon
TK-10 renal = system: TK-10 renal
U251 CNS = system: U251 CNS
UACC-257 melanoma = system: UACC-257 melanoma
UACC-62 melanoma = system: UACC-62 melanoma
UO-31 renal = system: UO-31 renal
XF 498 CNS = system: XF 498 CNS

Structure (SMILES): CCOC(=O)c1csc(CCCCCCc2nc(C(=O)OCC)cs2)n1
- TGI (786-0 renal): > 56.7 µM
- TGI (A498 renal): > 100 µM
- TGI (A549 NSCLC): > 66.5 µM
- TGI (ACHN renal): > 100 µM
- TGI (CAKI-1 renal): > 100 µM
- TGI (CCRF-CEM leukemia): > 63.9 µM
- TGI (COLO 205 colon): 98.1 µM
- TGI (DLD-1 colon): > 100 µM
- TGI (DMS 273 small cell lung): > 100 µM
- TGI (EKVX NSCLC): > 100 µM
- TGI (HCC-2998 colon): > 100 µM
- TGI (HCT-116 colon): > 52.3 µM
- TGI (HCT-15 colon): > 100 µM
- TGI (HL-60(TB) leukemia): > 65.4 µM
- TGI (HOP-18 NSCLC): > 100 µM
- TGI (HOP-62 NSCLC): > 89.1 µM
- TGI (HOP-92 NSCLC): > 100 µM
- TGI (HT29 colon): > 100 µM
- TGI (IGROV1 ovarian): > 100 µM
- TGI (K-562 leukemia): > 62 µM
- TGI (KM12 colon): > 100 µM
- TGI (KM20L2 colon): > 100 µM
- TGI (LOX IMVI melanoma): > 54.5 µM
- TGI (LXFL 529 NSCLC): > 100 µM
- TGI (M14 melanoma): > 100 µM
- TGI (M19-MEL melanoma): 57.5 µM
- TGI (MALME-3M melanoma): > 100 µM
- TGI (MOLT-4 leukemia): > 100 µM
- TGI (NCI-H226 lung): 97.5 µM
- TGI (NCI-H23 lung): 99.7 µM
- TGI (NCI-H460 lung): > 57.7 µM
- TGI (NCI-H522 lung): > 100 µM
- TGI (OVCAR-3 ovarian): > 100 µM
- TGI (OVCAR-4 ovarian): > 100 µM
- TGI (OVCAR-5 ovarian): > 100 µM
- TGI (OVCAR-8 ovarian): > 87.2 µM
- TGI (RPMI-8226 leukemia): > 69.2 µM
- TGI (RXF 393 renal): 64 µM
- TGI (RXF-631 renal): > 100 µM
- TGI (SF-268 CNS): > 100 µM
- TGI (SF-295 CNS): > 100 µM
- TGI (SF-539 CNS): > 88 µM
- TGI (SK-MEL-2 melanoma): > 100 µM
- TGI (SK-MEL-28 melanoma): > 83.8 µM
- TGI (SK-MEL-5 melanoma): > 100 µM
- TGI (SK-OV-3 ovarian): > 100 µM
- TGI (SN12C renal): > 100 µM
- TGI (SNB-19 CNS): > 100 µM
- TGI (SNB-75 CNS): 70.4 µM
- TGI (SNB-78 CNS): > 100 µM
- TGI (SR leukemia): > 100 µM
- TGI (SW-620 colon): > 65.4 µM
- TGI (TK-10 renal): > 100 µM
- TGI (U251 CNS): > 59.6 µM
- TGI (UACC-257 melanoma): 96.9 µM
- TGI (UACC-62 melanoma): > 100 µM
- TGI (UO-31 renal): > 100 µM
- TGI (XF 498 CNS): 86.3 µM

Structure (SMILES): Cc1cccc(C(C)(C)C)c1NC(=O)CCl
- TGI (786-0 renal): > 100 µM
- TGI (A498 renal): > 100 µM
- TGI (A549 NSCLC): > 100 µM
- TGI (ACHN renal): > 100 µM
- TGI (CAKI-1 renal): > 100 µM
- TGI (CCRF-CEM leukemia): > 100 µM
- TGI (COLO 205 colon): > 100 µM
- TGI (DLD-1 colon): > 100 µM
- TGI (DMS 273 small cell lung): > 100 µM
- TGI (EKVX NSCLC): > 100 µM
- TGI (HCC-2998 colon): > 100 µM
- TGI (HCT-116 colon): > 100 µM
- TGI (HL-60(TB) leukemia): > 100 µM
- TGI (HOP-18 NSCLC): > 100 µM
- TGI (HOP-62 NSCLC): > 100 µM
- TGI (HT29 colon): > 100 µM
- TGI (IGROV1 ovarian): > 100 µM
- TGI (K-562 leukemia): > 100 µM
- TGI (KM12 colon): > 100 µM
- TGI (KM20L2 colon): > 100 µM
- TGI (LOX IMVI melanoma): > 100 µM
- TGI (LXFL 529 NSCLC): > 100 µM
- TGI (M14 melanoma): > 100 µM
- TGI (M19-MEL melanoma): > 100 µM
- TGI (MALME-3M melanoma): > 100 µM
- TGI (MOLT-4 leukemia): > 100 µM
- TGI (NCI-H226 lung): > 100 µM
- TGI (NCI-H23 lung): > 100 µM
- TGI (NCI-H460 lung): > 100 µM
- TGI (NCI-H522 lung): > 100 µM
- TGI (OVCAR-3 ovarian): > 100 µM
- TGI (OVCAR-4 ovarian): > 100 µM
- TGI (OVCAR-8 ovarian): > 100 µM
- TGI (RXF 393 renal): > 100 µM
- TGI (RXF-631 renal): > 100 µM
- TGI (SF-268 CNS): > 100 µM
- TGI (SF-295 CNS): > 100 µM
- TGI (SF-539 CNS): > 100 µM
- TGI (SK-MEL-2 melanoma): > 100 µM
- TGI (SK-MEL-28 melanoma): > 100 µM
- TGI (SK-MEL-5 melanoma): > 100 µM
- TGI (SK-OV-3 ovarian): > 100 µM
- TGI (SN12C renal): > 100 µM
- TGI (SNB-19 CNS): > 100 µM
- TGI (SNB-75 CNS): > 100 µM
- TGI (SNB-78 CNS): > 100 µM
- TGI (SR leukemia): > 100 µM
- TGI (SW-620 colon): > 100 µM
- TGI (TK-10 renal): > 100 µM
- TGI (U251 CNS): > 100 µM
- TGI (UACC-257 melanoma): > 100 µM
- TGI (UACC-62 melanoma): > 100 µM
- TGI (UO-31 renal): > 100 µM
- TGI (XF 498 CNS): > 100 µM

Structure (SMILES): O=[N+]([O-])c1ccc(C2N3CCCCC3[C@H]3CCCCN23)cc1 (some centres undefined)
- TGI (786-0 renal): > 100 µM
- TGI (A498 renal): > 100 µM
- TGI (A549 NSCLC): > 100 µM
- TGI (ACHN renal): > 100 µM
- TGI (CAKI-1 renal): > 100 µM
- TGI (CCRF-CEM leukemia): > 100 µM
- TGI (COLO 205 colon): > 100 µM
- TGI (DLD-1 colon): > 100 µM
- TGI (DMS 273 small cell lung): > 100 µM
- TGI (EKVX NSCLC): > 100 µM
- TGI (HCT-116 colon): > 100 µM
- TGI (HCT-15 colon): > 100 µM
- TGI (HL-60(TB) leukemia): > 100 µM
- TGI (HOP-18 NSCLC): > 100 µM
- TGI (HOP-62 NSCLC): > 100 µM
- TGI (HOP-92 NSCLC): > 100 µM
- TGI (HT29 colon): > 100 µM
- TGI (IGROV1 ovarian): > 100 µM
- TGI (K-562 leukemia): > 100 µM
- TGI (KM12 colon): > 100 µM
- TGI (KM20L2 colon): > 100 µM
- TGI (LOX IMVI melanoma): > 100 µM
- TGI (LXFL 529 NSCLC): > 100 µM
- TGI (M14 melanoma): > 100 µM
- TGI (M19-MEL melanoma): > 100 µM
- TGI (MALME-3M melanoma): > 100 µM
- TGI (MOLT-4 leukemia): > 100 µM
- TGI (NCI-H226 lung): > 100 µM
- TGI (NCI-H23 lung): > 100 µM
- TGI (NCI-H460 lung): > 100 µM
- TGI (NCI-H522 lung): > 100 µM
- TGI (OVCAR-3 ovarian): > 100 µM
- TGI (OVCAR-4 ovarian): > 100 µM
- TGI (OVCAR-5 ovarian): > 100 µM
- TGI (OVCAR-8 ovarian): > 100 µM
- TGI (RPMI-8226 leukemia): > 100 µM
- TGI (RXF 393 renal): > 100 µM
- TGI (RXF-631 renal): > 100 µM
- TGI (SF-268 CNS): > 100 µM
- TGI (SF-295 CNS): > 100 µM
- TGI (SF-539 CNS): > 100 µM
- TGI (SK-MEL-2 melanoma): > 100 µM
- TGI (SK-MEL-28 melanoma): > 100 µM
- TGI (SK-MEL-5 melanoma): > 100 µM
- TGI (SK-OV-3 ovarian): > 100 µM
- TGI (SN12C renal): > 100 µM
- TGI (SNB-19 CNS): > 100 µM
- TGI (SNB-75 CNS): > 100 µM
- TGI (SNB-78 CNS): > 100 µM
- TGI (SR leukemia): > 100 µM
- TGI (SW-620 colon): > 100 µM
- TGI (TK-10 renal): > 100 µM
- TGI (U251 CNS): > 100 µM
- TGI (UACC-257 melanoma): > 100 µM
- TGI (UACC-62 melanoma): > 100 µM
- TGI (UO-31 renal): > 100 µM
- TGI (XF 498 CNS): > 100 µM
